System: RSK-substrates (RXXpS/T phospho-peptides)
Test: Phospho-proteomics with anti-RXXpS/T enrichment in IFN-γ-stimulated macrophages
Type: cell-based, human
Conditions: BI-D1870 +IFNg, IP:RXXpS/T, DMSO = 1.00
Experimental: (FIG. 6A) Scheme of phospho-proteomics. Human PBMC-derived macrophages were treated with DMSO or BI-D1870 for two hours followed by IFN-γ stimulation for subsequent proteolysis and phospho-peptide enrichment using the anti-RXXpS/T antibody strategy. […] N=2 donors. […] The average shortest distance of the same number of randomly selected genes to disease genes was calculated for N=250 realizations in order to compare the average shortest distance value to random expectation. Empirical p-values were calculated based on 100 degree-preserved randomizations of the first neighbor networks.
Phospho-proteomics. Phospho-peptide immunoaffinity purification from cell lysates was performed as described previously (36), with minor modifications. Human PBMC-derived macrophages were pretreated with DMSO or BI-D1870 followed by IFN-γ stimulation. Cell lysates (8.0 mg) were proteolyzed (Lys-C, Wako Chemicals) using in-solution urea strategy detailed previously (34). Trifluoroacetic acid (TFA) was added to protein digests to a final concentration of 1%, precipitate was removed by centrifugation, and digests were loaded onto Sep-Pak C18 columns (Waters) equilibrated with 0.1% TFA. Columns were washed with 0.1% TFA and wash buffer (0.1% TFA, 5% acetonitrile). A peptide fraction was obtained by elution with elution buffer (0.1% TFA, 40% acetonitrile). The peptide eluate was frozen overnight and lyophilize frozen peptide solution for 2 days. Peptides were dissolved in 1.4 mL of IAP buffer (Cell signaling Technology). Insoluble matter was removed by centrifugation. […] The immobilized antibody beads were washed three times with 1 ml IAP buffer and three times with 1 ml water, all at 4° C. Peptides were eluted from beads by incubation with 55 μl of 0.15% TFA at room temperature for 10 minutes (eluate 1), followed by a wash of the beads (eluate 2) with 50 μl of 0.15% TFA. Both eluates were combined. The peptide solution was desalted using Oasis Hlb 1 cc columns (Waters), dried in a SpeedVac, resuspend with Trypsin solution, and digested overnight. After desalting using Oasis Hlb 1 cc columns, peptides were dried in a SpeedVac, and resuspend with 40 μl of 5% acetonitrile and 0.5% formic acid for subsequent analysis by liquid chromatography/mass spectrometry (LC/MS).
Each peptide sample was analyzed four times: a full scan range of 350-1800 m/z and three gas phase separation scans—350-500 m/z, 500-700 m/z, and 700-1200 m/z in order to increase phospho-peptide signals.
Phospho-proteomics and kinase assays. The MS/MS data were queried as above using a 10-ppm tolerance window in the MS1 search space, and a 0.02 Da fragment tolerance window for EThcD or HCD. Methionine oxidation, and phosphorylation of serine and threonine were set as variable modifications, and carbamidomethylation of cysteine residues was set as fixed modifications. High confidently assigned phospho-peptides were used for precursor ion area under the curve (AUC) quantification. The peptides that were detected in IgG conditions were considered as non-specific signals and excluded. The normalized precursor ion intensities were exported from PD2.1.

In the case of `CC(C)CCN1c2nc(Nc3cc(F)c(O)c(F)c3)ncc2N(C)C(=O)C1C` (stereo not drawn) [BI-D1870], the “Intensity of phospho-peptide SLC20A1 S335 [R].ERLPSVDLK.[E]” value (DMSO +IFNg = 1.51) is reported as 0.51, the “Intensity of phospho-peptide LUC7L3 T238 [R].KRTEEPDRDER.[L]” value (DMSO +IFNg = 1.55) is reported as 1.03 and the “Intensity of phospho-peptide STX7 S129 [R].ASSRVSGSFPEDSSK.[E]” value (DMSO +IFNg = 1.60) is reported as 0.67. The “Intensity of phospho-peptide AP1AR T228 [R].SKTEEDILR.[A]” value (DMSO +IFNg = 1.67) was 0.80, the “Intensity of phospho-peptide AKAP13 T2471 [R].RAETFGGFDSHQMNASK.[G]” value (DMSO +IFNg = 1.68) was 0.73 and the “Intensity of phospho-peptide CLASP1 S646 [R].RQSSGSATNVASTPDNR.[G]” value (DMSO +IFNg = 1.75) was 0.94. The “Intensity of phospho-peptide TRPM7 S1504 [R].RPSTEDTHEVDSK.[A]” value (DMSO +IFNg = 1.75) was 0.73, the “Intensity of phospho-peptide SLC4A7 S407 [R].ENSTVDFSK.[VEG]” value (DMSO +IFNg = 1.79) was 1.61 and the “Intensity of phospho-peptide IFNGR1 T295 [R].SATLETKPESK.[Y]” value (DMSO +IFNg = 1.83) was 0.77. For the same compound, the “Intensity of phospho-peptide RPS6 S235 [K].RRRLSSLRASTSK.[S]” value (DMSO +IFNg = 1.86) was 0.74, the “Intensity of phospho-peptide REPS1 S650 [R].LKSEDELRPEVDEHTQK.[T]” value (DMSO +IFNg = 1.91) was 0.94 and the “Intensity of phospho-peptide REPS1 S650 [R].RLKSEDELRPEVDEHTQK.[T]” value (DMSO +IFNg = 1.96) was 1.09. The “Intensity of phospho-peptide GPBP1 S49 [R].HNSSDGFDSAIGRPNGGNFGR.[K]” value (DMSO +IFNg = 2.05) was 0.45, the “Intensity of phospho-peptide MYO1E T935 [R].RNTTQNTGYSSGTQNANYPVR.[A]” value (DMSO +IFNg = 2.15) was 0.88 and the “Intensity of phospho-peptide CHP1 T7 [R].ASTLLRDEELEEIKK.[E]” value (DMSO +IFNg = 2.18) was 1.00. For the same compound, the “Intensity of phospho-peptide NDRG3 S338 [R].THSTSSSLGSGESPFSR.[S]” value (DMSO +IFNg = 2.25) was 1.07, the “Intensity of phospho-peptide GPBP1 S49 [R].RHNSSDGFDSAIGRPNGGNFGR.[K]” value (DMSO +IFNg = 2.28) was 1.00 and the “Intensity of phospho-peptide NDRG1 S330 [R].TASGSSVTSLDGTR.[S]” value (DMSO +IFNg = 2.29) was 1.88. The “Intensity of phospho-peptide STK11IP S398 [R].RASISEPSDTDPEPR.[T]” value (DMSO +IFNg = 2.31) was 0.58, the “Intensity of phospho-peptide EIF4B S422 [R].TGSESSQTGTSTTSSR.[SN]” value (DMSO +IFNg = 2.58) was 1.29 and the “Intensity of phospho-peptide SPECC1L T838 [R].RSSTSSEPTPTVK.[T]” value (DMSO +IFNg = 2.80) was 1.80. The “Intensity of phospho-peptide AKT1S1 T266 [R].LNTSDFQK.[L]” value (DMSO +IFNg = 3.11) was 0.89, the “Intensity of phospho-peptide RPS6 S235; S236 [R].RLSSLRASTSK.[S]” value (DMSO +IFNg = 3.46) was 1.65 and the “Intensity of phospho-peptide FLNA S2152 [R].RAPSVANVGSHCDLSLK.[I]” value (DMSO +IFNg = 3.67) was 1.32.
